Measured values published in EPA's ToxValDB 9.5 (doi:10.2903/j.efsa.2008.146r).

Assays:
Tagia sp. = details: acute; duration: 14 days; mortality
Colinus virginianus = details: acute, oral, mortality
Coturnix japonica = details: reproduction developmental
Canidae = details: oral, Dog Other, clinical signs
Apis mellifera = details: acute, mortality
Daphnia magna = details: chronic/long-term; duration: 21 days; reproduction
Typhlodromus pyri = assay: LR50; higher = less toxic; details: acute; duration: 14 days; mortality
Aphidius rhopalosiphi = assay: LR50; higher = less toxic; details: acute; duration: 48 hours; mortality

For `C[N+]1(C)CCCCC1.[Cl-]` [1,1-Dimethylpiperidinium chloride], the LC50 (Oncorhynchus mykiss; acute, duration: 96 hours, mortality) was > 100 µg/mL, the NOEC (Oncorhynchus mykiss; chronic/long-term, duration: 28 days, growth) was 100 mg/L and the LC50 (Tagia sp.) was 320 mg/kg. For the same compound, the LD50 (Colinus virginianus; diet) was > 1330 mg/kg-day, the LD50 (Colinus virginianus) was > 2000 mg/kg-day and the NOEC (Coturnix japonica) was 933 mg/kg-day. For the same compound, the NOAEL (Canidae; chronic, duration: 12 months) was 19.9 mg/kg-day, the NOAEL (Canidae; subchronic, duration: 3 months) was 30.5 mg/kg-day and the LD50 (Apis mellifera; dermal) was > 100 µg/piece. The LD50 (Apis mellifera; oral, unspecified) was > 107 µg/piece, the LD50 (Rattus norvegicus; acute, oral, mortality) was 200 mg/kg-day and the NOAEC (Rattus norvegicus; reproduction developmental) was 155 mg/kg-day. For the same compound, the NOAEL (Rattus norvegicus; reproduction developmental, mortality) was 30 mg/kg-day, the NOEC (Daphnia magna) was 12.5 mg/L and the LR50 (Typhlodromus pyri) was 1530 g/ha. It also gave an LR50 (Aphidius rhopalosiphi) of 1370 g/ha.
